We go through 25 compounds from BindingDB's records for doi:10.1021/jm00172a035 (Wyeth-Ayerst Research, 1990).

Counter-ions that a name gives are not always drawn. A value given as a limit tells only on which side of the number the result lay.

Chain of Sodium-dependent serotonin transporter (Rattus norvegicus) (P31652 whole entry, looked up): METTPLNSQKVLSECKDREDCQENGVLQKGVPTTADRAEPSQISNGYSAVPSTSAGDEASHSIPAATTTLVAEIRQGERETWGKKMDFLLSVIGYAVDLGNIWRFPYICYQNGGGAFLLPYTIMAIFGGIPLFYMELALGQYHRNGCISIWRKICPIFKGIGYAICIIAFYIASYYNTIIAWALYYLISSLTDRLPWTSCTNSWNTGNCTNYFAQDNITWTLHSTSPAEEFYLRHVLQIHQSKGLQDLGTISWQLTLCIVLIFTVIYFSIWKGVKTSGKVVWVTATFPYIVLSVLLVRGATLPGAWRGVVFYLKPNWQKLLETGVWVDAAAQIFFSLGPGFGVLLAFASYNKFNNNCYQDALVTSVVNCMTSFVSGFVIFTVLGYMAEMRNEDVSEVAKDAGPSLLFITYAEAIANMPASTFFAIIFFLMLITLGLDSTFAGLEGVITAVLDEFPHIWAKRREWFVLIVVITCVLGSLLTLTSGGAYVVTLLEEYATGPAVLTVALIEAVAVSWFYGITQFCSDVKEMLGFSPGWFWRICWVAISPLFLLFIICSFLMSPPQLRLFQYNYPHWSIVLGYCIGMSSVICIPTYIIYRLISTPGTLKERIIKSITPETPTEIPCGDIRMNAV

This assay addresses Sodium-dependent serotonin transporter (Rattus norvegicus) (UniProt P31652). In words: Inhibition of binding of [3H]imipramine to imipramine receptor in rat brain.
The compound `CN(C)CC(c1cccc(Cl)c1)C1(O)CCCCC1` (stereo not given) came in with an IC50 of 130 nM.

Take `CN(C)CC(c1ccccc1O)C1(O)CCCCC1` (stereo not given): the IC50 is over 10000 nM.

On to `COc1ccc(C(CN(C)C)C2(O)CCCC2)cc1` (stereo not given), for which the IC50 was found to be 126 nM.

The compound `COc1ccc(C(CN(C)C)C2(O)CCCCCC2)cc1` (stereo not given) yielded an IC50 of 300 nM.

For the compound `CN(C)CC(c1ccc([N+](=O)[O-])cc1)C1(O)CCCCC1` (stereo not given), the half-inhibitory concentration (IC50) amounted to 250 nM.

Turning to `COc1cccc(C(CN(C)C)C2(O)CCCC2)c1` (stereo not given), the IC50 was found to be 95 nM.

With `CN(C)CC(c1cccc(Br)c1)C1(O)CCCCC1` (stereo not given), the IC50 was found to be 52 nM.

Consider `CN(C)CC(c1ccc(Cl)c(Cl)c1)C1(O)CCCCC1` (stereo not given), for which the IC50 stood at 37 nM.

Compound `CN(C)CC(c1ccc(Br)cc1)C1(O)CCCCC1` (stereo not given) displayed an IC50 of 62 nM.

`COc1ccc(C(CN(C)C)C2(O)CCCCC2)cc1Br` (stereo not given) displayed an IC50 of 190 nM.

For the compound `CN(C)CC(c1ccc(Br)cc1)C1(O)CCC1` (stereo not given), the IC50 turned out to be 435 nM.

The compound `CN(C)CC(c1ccc(C(F)(F)F)cc1)C1(O)CCCCC1` (stereo not given) had a half-inhibitory concentration (IC50) of 88 nM.

`COc1ccc(C(CN(C)C)C2(O)CCCCC2)cc1OC` (stereo not given) returned an IC50 of 700 nM.

For `Cc1ccc(C(CN(C)C)C2(O)CCCCC2)cc1` (stereo not given), the IC50 is 205 nM.

With `CN(C)CC(c1ccc(N)cc1)C1(O)CCCCC1` (stereo not given), the IC50 is over 10000 nM.

Consider `COc1ccc(C(CN2CCOCC2)C2(O)CCCCC2)cc1` (stereo not given), for which the IC50 was over 10000 nM.

In turn, `COc1ccc(C(CN2CCCC2)C2(O)CCCCC2)cc1` (stereo not given) returned an IC50 of over 10000 nM.

Consider `CN(C)CC(c1ccccc1Br)C1(O)CCCCC1` (stereo not given), for which the IC50 was 260 nM.

For `COc1ccc(C(CN)C2(O)CCCCC2)cc1` (stereo not given), the IC50 turned out to be 900 nM.

In turn, `COc1ccc(C(CN(C)C)C2(O)CCCCCCC2)cc1` (stereo not given) registered an IC50 of over 10000 nM.

Turning to `COc1ccc(C(CN2CCCCC2)C2(O)CCCCC2)cc1` (stereo not given), the IC50 is over 10000 nM.

Compound `CN(C)CC(c1ccccc1Cl)C1(O)CCCCC1` (stereo not given) [1-(1-(2-chlorophenyl)-2-(dimethylamino)ethyl)cyclohexanol] gave an IC50 of 523 nM.

In turn, `COc1cccc(C(CN(C)C)C2(O)CCCCC2)c1` (stereo not given) [1-(2-(dimethylamino)-1-(3-methoxyphenyl)ethyl)cyclohexanol] gave an IC50 of 150 nM.

In the case of `CN(C)CC(c1ccc(Cl)cc1)C1(O)CCCCC1` (stereo not given) [1-[1-(4-Chloro-phenyl)-2-dimethylamino-ethyl]-cyclohexanol (HCl)], the IC50 turned out to be 100 nM.

`CNCC(c1ccc(OC)cc1)C1(O)CCCCC1` (stereo not given) [N-Desmethylvenlafaxine] came in with an IC50 of 300 nM.
